Results: patent US4409210A, “Antibiotic compound” (priority 1982, dated 1983)
In brackets after ≈: the same amount, converted by molar mass. *1 amine or outer side, *2 acyl side, *3 side chain or, on linkers, in order; H or OH if unused. Where a SMILES comes first, the peptide text is derived from it. Bridges are numbered along the chain shown (N, C = ends). Roman numbers before positions name the chains, in order. [ ]: non-standard residue; d: D form. Actinocin(9to1) = Cc1c2oc3c(C)ccc(C(=O)[*:1])c3nc-2c(C(=O)[*:2])c(N)c1=O; NMeV = CN[C@H](C(=O)O)C(C)C; Sar = CNCC(=O)O

Assays:
Strain G393-B445 = test: Antibiotic sensitivity, paper disc-agar diffusion method; type: cell-based, Empedobacter sp.; set-up: key: S (sensitive); R (resistant); I (intermediate); details: nutrient agar, 2 day's incubation at 28° C., Difco discs, amount/disc per antibiotic
E. coli NIHJ = test: as above; type: cell-based; set-up: key: S (sensitive); R (resistant); I (intermediate); details: nutrient agar, 2 day's incubation at 28° C., Difco discs, amount/disc per antibiotic
S. aureus 209P = test: as above; type: cell-based; set-up: key: S (sensitive); R (resistant); I (intermediate); details: nutrient agar, 2 day's incubation at 28° C., Difco discs, amount/disc per antibiotic
[1] = system: Staphylococcus aureus 209P; test: MIC, serial two-fold dilution method (aerobic); type: cell-based; details: Staphylococcus aureus 209P; Mueller-Hinton agar; inoculum 10^4; read-out: minimum inhibitory concentration (MIC)
[2] = system: Staphylococcus aureus Smith; test: MIC, serial two-fold dilution method (aerobic); type: cell-based; details: Staphylococcus aureus Smith; Mueller-Hinton agar; inoculum 10^4; read-out: minimum inhibitory concentration (MIC)
[3] = system: Staphylococcus aureus #193; test: MIC, serial two-fold dilution method (aerobic); type: cell-based; details: Staphylococcus aureus #193; Mueller-Hinton agar; inoculum 10^4; read-out: minimum inhibitory concentration (MIC)
[4] = system: Staphylococcus aureus BX-1633; test: MIC, serial two-fold dilution method (aerobic); type: cell-based; details: BX1633; Staphylococcus aureus BX-1633; Mueller-Hinton agar; inoculum 10^4; read-out: minimum inhibitory concentration (MIC)
[5] = system: Staphylococcus aureus A9601; test: MIC, serial two-fold dilution method (aerobic); type: cell-based; details: Staphylococcus aureus A9601; Mueller-Hinton agar; inoculum 10^4; read-out: minimum inhibitory concentration (MIC)
[6] = system: Staphylococcus aureus A9748; test: MIC, serial two-fold dilution method (aerobic); type: cell-based; details: Staphylococcus aureus A9748; Mueller-Hinton agar; inoculum 10^4; read-out: minimum inhibitory concentration (MIC)
[7] = system: Staphylococcus aureus A9856; test: MIC, serial two-fold dilution method (aerobic); type: cell-based; details: Staphylococcus aureus A9856; Mueller-Hinton agar; inoculum 10^4; read-out: minimum inhibitory concentration (MIC)
[8] = system: Staphylococcus aureus A20239; test: MIC, serial two-fold dilution method (aerobic); type: cell-based; details: Staphylococcus aureus A20239; Mueller-Hinton agar; inoculum 10^4; read-out: minimum inhibitory concentration (MIC)
[9] = system: Staphylococcus aureus A20394; test: MIC, serial two-fold dilution method (aerobic); type: cell-based; details: Staphylococcus aureus A20394; Mueller-Hinton agar; inoculum 10^4; read-out: minimum inhibitory concentration (MIC)
[10] = system: Staphylococcus aureus A20610; test: MIC, serial two-fold dilution method (aerobic); type: cell-based; details: Staphylococcus aureus A20610; Mueller-Hinton agar; inoculum 10^4; read-out: minimum inhibitory concentration (MIC)
[11] = system: Staphylococcus aureus A20701; test: MIC, serial two-fold dilution method (aerobic); type: cell-based; details: Staphylococcus aureus A20701; Mueller-Hinton agar; inoculum 10^4; read-out: minimum inhibitory concentration (MIC)
[12] = system: Staphylococcus aureus A22421; test: MIC, serial two-fold dilution method (aerobic); type: cell-based; details: Staphylococcus aureus A22421; Mueller-Hinton agar; inoculum 10^4; read-out: minimum inhibitory concentration (MIC)
Sarcina lutea PCI-1001 = test: MIC, serial two-fold dilution method (aerobic); type: cell-based; details: Micrococcus luteus, PCI1001; Sarcina lutea PCI-1001; Mueller-Hinton agar; inoculum 10^4; read-out: minimum inhibitory concentration (MIC)
Micrococcus flavus D-12 = test: MIC, serial two-fold dilution method (aerobic); type: cell-based; details: D12; Micrococcus flavus D-12; Mueller-Hinton agar; inoculum 10^4; read-out: minimum inhibitory concentration (MIC)
[13] = system: Bacillus anthracis IID-115; test: microbe, parasite or virus in culture; type: cell-based; details: Bacillus anthracis, IID115, read-out: minimum inhibitory concentration (MIC)
[14] = system: Bacillus subtilis ATCC 6633; test: MIC, serial two-fold dilution method (aerobic); type: cell-based; details: ATCC6633; Bacillus subtilis ATCC 6633; Mueller-Hinton agar; inoculum 10^4; read-out: minimum inhibitory concentration (MIC)
Escherichia coli NIHJ = test: MIC, serial two-fold dilution method (aerobic); type: cell-based; details: Escherichia coli NIHJ; Mueller-Hinton agar; inoculum 10^4; read-out: minimum inhibitory concentration (MIC)
[15] = system: Klebsiella pneumoniae D-11; test: MIC, serial two-fold dilution method (aerobic); type: cell-based; details: D11; Klebsiella pneumoniae D-11; Mueller-Hinton agar; inoculum 10^4; read-out: minimum inhibitory concentration (MIC)
Proteus mirabilis A9554 = test: MIC, serial two-fold dilution method (aerobic); type: cell-based; details: Proteus mirabilis A9554; Mueller-Hinton agar; inoculum 10^4; read-out: minimum inhibitory concentration (MIC)
Proteus vulgaris A9436 = test: MIC, serial two-fold dilution method (aerobic); type: cell-based; details: Proteus vulgaris A9436; Mueller-Hinton agar; inoculum 10^4; read-out: minimum inhibitory concentration (MIC)
[16] = system: Pseudomonas aeruginosa D-113; test: MIC, serial two-fold dilution method (aerobic); type: cell-based; details: D113; Pseudomonas aeruginosa D-113; Mueller-Hinton agar; inoculum 10^4; read-out: minimum inhibitory concentration (MIC)

CC1(C)S[C@@H]2[C@H](NC(=O)Cc3ccccc3)C(=O)N2[C@H]1C(=O)O [Pencillin G]
Sensitivity Strain G393-B445 (Strain G393-B445): S | Sensitivity E. coli NIHJ (E. coli NIHJ): I | Sensitivity S. aureus 209P (S. aureus 209P): S

CN(C)[C@@H]1C(O)=C(C(N)=O)C(=O)[C@@]2(O)C(O)=C3C(=O)c4c(O)cccc4[C@@](C)(O)[C@H]3C[C@@H]12 [Tetracycline]
Sensitivity Strain G393-B445 (Strain G393-B445): S | Sensitivity E. coli NIHJ (E. coli NIHJ): S | Sensitivity S. aureus 209P (S. aureus 209P): S

NC[C@H]1O[C@H](O[C@H]2[C@H](O)[C@@H](O[C@H]3O[C@H](CO)[C@@H](O)[C@H](N)[C@H]3O)[C@H](N)C[C@@H]2N)[C@H](O)[C@@H](O)[C@@H]1O [Kanamycin]
MIC [1]: 0.4 µg/mL (≈ 0.826 µM) | MIC [2]: 0.4 µg/mL (≈ 0.826 µM) | MIC [3]: 0.8 µg/mL (≈ 1.65 µM) | MIC [4]: 0.8 µg/mL (≈ 1.65 µM) | MIC [5]: 0.4 µg/mL (≈ 0.826 µM) | MIC [6]: 1.6 µg/mL (≈ 3.3 µM) | MIC [7]: 0.8 µg/mL (≈ 1.65 µM) | MIC [8]: > 100 µg/mL | MIC [9]: 0.8 µg/mL (≈ 1.65 µM) | MIC [10]: 100 µg/mL (≈ 206 µM) | MIC [11]: 100 µg/mL (≈ 206 µM) | MIC [12]: > 100 µg/mL | MIC (Sarcina lutea PCI-1001): 3.1 µg/mL (≈ 6.4 µM) | MIC (Micrococcus flavus D-12): 3.1 µg/mL (≈ 6.4 µM) | MIC [13]: 0.4 µg/mL (≈ 0.826 µM) | MIC [14]: 0.2 µg/mL (≈ 0.413 µM) | MIC (Escherichia coli NIHJ): 0.8 µg/mL (≈ 1.65 µM) | MIC [15]: 0.2 µg/mL (≈ 0.413 µM) | MIC (Proteus mirabilis A9554): 0.4 µg/mL (≈ 0.826 µM) | MIC (Proteus vulgaris A9436): 0.4 µg/mL (≈ 0.826 µM) | MIC [16]: > 100 µg/mL

Cc1c2oc3c(C)ccc(C(=O)N[C@@H]4C(=O)N[C@H](C(C)C)C(=O)N5CCC[C@H]5C(=O)N(C)CC(=O)N(C)[C@@H](C(C)C)C(=O)O[C@@H]4C)c3nc-2c(C(=O)N[C@@H]2C(=O)N[C@H](C(C)C)C(=O)N3CCC[C@H]3C(=O)N(C)CC(=O)N(C)[C@@H](C(C)C)C(=O)O[C@@H]2C)c(N)c1=O [Actinomycin D] (I: T[dV]P[Sar][NMeV] / II: T[dV]P[Sar][NMeV]; ester I:1-I:C, II:1-II:C; linker I:N-II:N via Actinocin(9to1))
Sensitivity Strain G393-B445 (Strain G393-B445): I | Sensitivity E. coli NIHJ (E. coli NIHJ): R | Sensitivity S. aureus 209P (S. aureus 209P): S

[H]/N=C(/N)N[C@H]1[C@H](O)[C@@H](O)[C@H](O[C@@H]2O[C@@H](C)[C@](O)(C=O)[C@H]2O[C@@H]2O[C@@H](CO)[C@H](O)[C@@H](O)[C@@H]2NC)[C@@H](N/C(N)=N\[H])[C@@H]1O [Streptomycin]
Sensitivity Strain G393-B445 (Strain G393-B445): S | Sensitivity E. coli NIHJ (E. coli NIHJ): I | Sensitivity S. aureus 209P (S. aureus 209P): I

Polymyxin B
Sensitivity Strain G393-B445 (Strain G393-B445): R | Sensitivity E. coli NIHJ (E. coli NIHJ): R | Sensitivity S. aureus 209P (S. aureus 209P): R
